Results: ChEMBL document CHEMBL1151187, “Antioxidant xanthones from Garcinia vieillardii” (J Nat Prod, 2004)
The source made the active and inactive calls. The rule behind the calls is not given here.

tested on: Radical scavenging activity; assay: Antioxidant activity assessed as DPPH radical scavenging activity; type: functional

| Structure (SMILES) | Activity |
| --- | --- |
| C=CC(C)(C)c1c(O)cc(O)c2c(=O)c3ccc(O)c(O)c3oc12 | Active |
| C=C(c1c(OC)cc(O)c2c(=O)c3ccc(O)c(O)c3oc12)C(C)C | Active |
| COc1ccc(O)c(C(C)(C)C)c1.COc1ccc(O)cc1C(C)(C)C | Active |
